Legend:
MG63 = test: Cell viability assay (MTT), in vitro screen, MG63 cells; assay type: cell-based, Human; conditions: 72 h
Experimental: Human osteosarcoma MG-63, U2OS cell lines were kind gift from David Meiri, and head and neck FaDu cell line were a kind gift of Moshe Elkabetz. These cells were incubated under standard conditions of 37° C., 5% CO2, and 95% humidity. MG-63 and U2OS cells were cultured in RPMI-1640 (Biological Industries) containing 10% fetal bovine serum, 2 mM L-Glutamine (Biological Industries) and 1% penicillin/streptomycin (Biological Industries).
5000 cells per well in 0.2 ml growth media were seeded in a 96-well plate and allowed to attach for 24 hours. After 24 hours the cells were exposed to logarithmic gradient of drugs (Gemcitabine, Sorafenib, Nilotinib, Carfilzomib, Nintedanib, Trametinib, Cabozantinib, Ponatinib, Infigratinib, Duvelisib).
Cell survival for the cell lines was assayed after 3 days from adding the drugs. For the U20S and MG-63 by adding […] (5 mg/ml) in DDW to each well. After 3 hours, the solution was removed and 200 μl of DMSO was added. For the Fadu cell line by adding 30 μl of MTT solution (5 mg/ml) in DDW to each well. After 1 hour, the solution was removed and 100 μl of DMSO was added to dissolve the formazan crystals. Cell viability was evaluated by measuring the absorbance of each well using a Synergy H1 (BioTek) plate reader at 570 nm relative to control wells.

Fadu cells = assay type: cell-based; conditions: 72 h
Experimental: FaDu cell line were cultured in DMEM (Biological Industries) containing 10% fetal bovine serum, 2 mM L-Glutamine (Biological Industries) and 1% penicillin/streptomycin (Biological Industries). 5000 cells per well in 0.2 ml growth media were seeded in a 96-well plate and allowed to attach for 24 hours. After 24 hours the cells were exposed to logarithmic gradient of drugs (Gemcitabine, Sorafenib, Nilotinib, Carfilzomib, Nintedanib, Trametinib, Cabozantinib, Ponatinib, Infigratinib, Duvelisib). Cell survival for the cell lines was assayed after 3 days from adding the drugs. For the U20S and MG-63 by adding […] (5 mg/ml) in DDW to each well. After 3 hours, the solution was removed and 200 μl of DMSO was added. For the Fadu cell line by adding 30 μl of MTT solution (5 mg/ml) in DDW to each well. After 1 hour, the solution was removed and 100 μl of DMSO was added to dissolve the formazan crystals. Cell viability was evaluated by measuring the absorbance of each well using a Synergy H1 (BioTek) plate reader at 570 nm relative to control wells.

[1] = from a short literature review; cited from earlier work

Structure (SMILES) | potency / growth inhibition in the in-vitro screen (MG63) | sensitivity of cells to free drug and nanoparticle formulation (MG63) | cytotoxicity (MG63; low nanomolar concentrations) | potency in the in-vitro screen (Fadu cells; Fadu cells, MTT) | sensitivity of cells to free drug and nanoparticle formulation (Fadu cells; Fadu cells, MTT) | cytotoxicity (Fadu cells; human) | effectiveness versus chemotherapy combination of pemetrexed and cisplatin [1]
CC(C)C[C@H](NC(=O)[C@H](CCc1ccccc1)NC(=O)CN1CCOCC1)C(=O)N[C@@H](Cc1ccccc1)C(=O)N[C@@H](CC(C)C)C(=O)[C@@]1(C)CO1 [carfilzomib] | most potent compound | extremely sensitive | more than 95% | most potent molecule | less sensitive | 64% | 
C=CC(=O)Nc1cc(Nc2nccc(-c3cn(C)c4ccccc34)n2)c(OC)cc1N(C)CCN(C)C [osimertinib] |  |  |  |  |  |  | more effective

From patent US20220319656A1, “AUTOMATED LITERATURE META ANALYSIS USING HYPOTHESIS GENERATORS AND AUTOMATED SEARCH” (TECHNION RESEARCH & DEVELOPMENT FOUNDATION, priority 2019, published 2022)
